Reference: ChEMBL document CHEMBL3774304, “Novel morpholin-3-one fused quinazoline derivatives as EGFR tyrosine kinase inhibitors” (Bioorg Med Chem Lett, 2016)

Experiments:
[1] = target: T1, Epidermal growth factor receptor (Homo sapiens, UniProt P00533)
Target sequence in this assay (P00533 whole entry): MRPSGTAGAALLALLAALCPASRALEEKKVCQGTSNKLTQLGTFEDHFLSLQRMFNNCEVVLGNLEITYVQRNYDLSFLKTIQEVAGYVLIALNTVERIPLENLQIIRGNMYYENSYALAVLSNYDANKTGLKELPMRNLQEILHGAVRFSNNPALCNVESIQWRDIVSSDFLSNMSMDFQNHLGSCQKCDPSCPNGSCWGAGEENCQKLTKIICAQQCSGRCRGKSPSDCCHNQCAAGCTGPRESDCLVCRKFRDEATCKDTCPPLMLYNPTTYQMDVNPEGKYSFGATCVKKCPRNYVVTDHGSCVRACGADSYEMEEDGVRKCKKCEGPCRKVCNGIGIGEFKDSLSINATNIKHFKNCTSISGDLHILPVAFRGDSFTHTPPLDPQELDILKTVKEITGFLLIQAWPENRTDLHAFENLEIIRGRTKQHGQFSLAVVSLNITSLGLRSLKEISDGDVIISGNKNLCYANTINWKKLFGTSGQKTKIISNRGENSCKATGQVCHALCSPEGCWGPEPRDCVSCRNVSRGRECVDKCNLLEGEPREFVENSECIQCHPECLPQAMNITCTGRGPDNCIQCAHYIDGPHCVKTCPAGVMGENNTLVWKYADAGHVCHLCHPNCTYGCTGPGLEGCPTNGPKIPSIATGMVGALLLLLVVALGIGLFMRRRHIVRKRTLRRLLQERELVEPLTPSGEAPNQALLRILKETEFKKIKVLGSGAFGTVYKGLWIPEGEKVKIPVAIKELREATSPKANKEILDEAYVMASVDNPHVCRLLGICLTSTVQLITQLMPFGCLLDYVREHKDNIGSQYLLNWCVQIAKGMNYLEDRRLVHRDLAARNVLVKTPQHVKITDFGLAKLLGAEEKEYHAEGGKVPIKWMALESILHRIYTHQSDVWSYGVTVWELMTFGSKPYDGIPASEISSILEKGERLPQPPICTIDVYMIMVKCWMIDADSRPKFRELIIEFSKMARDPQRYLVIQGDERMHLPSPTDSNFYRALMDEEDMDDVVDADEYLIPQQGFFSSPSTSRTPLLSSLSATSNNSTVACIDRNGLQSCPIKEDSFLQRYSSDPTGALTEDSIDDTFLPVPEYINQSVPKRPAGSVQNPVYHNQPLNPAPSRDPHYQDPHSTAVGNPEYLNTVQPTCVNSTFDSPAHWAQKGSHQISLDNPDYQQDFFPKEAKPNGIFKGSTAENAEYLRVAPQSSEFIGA
Description: Inhibition of wildtype EGFR (unknown origin) preincubated for 30 mins followed by addition of 2x ATP-substrate mixture measured after 1 hr by Kinase Glo luminescent kinase assay

A549 = assay: cells; assay type: functional, cell-based; conditions: Homo sapiens, A549, 48 h
Description: Antiproliferative activity against human A549 cells assessed as viable cells after 48 hrs by CCK8 assay

[2] = target: T1, Epidermal growth factor receptor; assay type: protein assay
Target sequence in this assay (P00533 25-1210 limits assumed, change not shown): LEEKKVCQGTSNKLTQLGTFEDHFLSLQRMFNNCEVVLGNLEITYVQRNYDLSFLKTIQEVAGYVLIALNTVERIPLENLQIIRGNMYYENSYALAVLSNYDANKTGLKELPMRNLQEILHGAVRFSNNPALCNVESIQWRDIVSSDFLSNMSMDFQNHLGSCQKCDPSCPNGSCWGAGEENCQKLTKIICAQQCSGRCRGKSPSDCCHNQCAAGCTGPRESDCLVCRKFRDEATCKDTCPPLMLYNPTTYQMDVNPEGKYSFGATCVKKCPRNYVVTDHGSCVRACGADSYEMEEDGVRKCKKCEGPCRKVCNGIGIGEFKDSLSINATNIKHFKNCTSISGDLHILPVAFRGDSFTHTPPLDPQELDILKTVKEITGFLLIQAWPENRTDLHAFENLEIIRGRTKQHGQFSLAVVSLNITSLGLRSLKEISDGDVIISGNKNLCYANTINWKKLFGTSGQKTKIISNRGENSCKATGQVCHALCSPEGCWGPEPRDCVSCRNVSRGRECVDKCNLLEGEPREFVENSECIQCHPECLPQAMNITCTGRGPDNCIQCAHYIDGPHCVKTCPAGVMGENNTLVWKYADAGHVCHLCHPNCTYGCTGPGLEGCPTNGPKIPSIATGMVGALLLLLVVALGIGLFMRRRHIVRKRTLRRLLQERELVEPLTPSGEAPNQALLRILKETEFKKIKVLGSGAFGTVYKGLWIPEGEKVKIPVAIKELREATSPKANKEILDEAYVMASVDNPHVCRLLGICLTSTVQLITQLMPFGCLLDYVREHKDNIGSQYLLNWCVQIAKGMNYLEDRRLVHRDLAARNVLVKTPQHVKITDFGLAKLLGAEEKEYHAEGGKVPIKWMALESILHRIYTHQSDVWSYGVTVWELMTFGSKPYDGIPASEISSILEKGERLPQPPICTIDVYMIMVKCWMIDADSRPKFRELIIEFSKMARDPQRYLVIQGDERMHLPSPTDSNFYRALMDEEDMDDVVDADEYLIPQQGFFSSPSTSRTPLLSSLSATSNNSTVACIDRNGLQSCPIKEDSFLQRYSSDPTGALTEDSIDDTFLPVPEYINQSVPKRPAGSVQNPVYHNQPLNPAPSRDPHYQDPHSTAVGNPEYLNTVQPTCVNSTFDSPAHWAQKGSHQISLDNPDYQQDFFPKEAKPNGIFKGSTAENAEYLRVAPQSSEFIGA
Description: Inhibition of EGFR-T790M/L858 mutant (unknown origin) preincubated for 30 mins followed by addition of 2x ATP-substrate mixture measured after 1 hr by Kinase Glo luminescent kinase assay

NCI-H358 = assay: cells; assay type: functional, cell-based; conditions: Homo sapiens, NCI-H358, 48 h
Description: Antiproliferative activity against human NCI-H358 cells assessed as viable cells after 48 hrs by CCK8 assay

IC50 [1] | SMILES | also measured
211 nM | C#Cc1cccc(Nc2ncnc3cc4c(cc23)N(CCCN2CCCCC2)C(=O)CO4)c1 | –
163 nM | Cc1ccc(Nc2ncnc3cc4c(cc23)N(CCCN2CCOCC2)C(=O)CO4)cc1Cl | –
63.1 nM | O=C1COc2cc3ncnc(Nc4cccc(Cl)c4)c3cc2N1CCCN1CCOCC1 | –
138 nM | O=C1COc2cc3ncnc(Nc4ccc(F)c(Cl)c4)c3cc2N1CCCN1CCCCC1 | –
245 nM | O=C1COc2cc3ncnc(Nc4cccc(F)c4)c3cc2N1CCCN1CCOCC1 | –
187 nM | Cc1cccc(Nc2ncnc3cc4c(cc23)N(CCCN2CCOCC2)C(=O)CO4)c1 | –
116 nM | O=C1COc2cc3ncnc(Nc4cccc(Cl)c4)c3cc2N1CCCN1CCCCC1 | –
53.1 nM | O=C1COc2cc3ncnc(Nc4ccc(F)c(Cl)c4)c3cc2N1CCCN1CCOCC1 | IC50 (A549): 7510 nM; IC50 [2]: 336 nM; IC50 (NCI-H358): 13500 nM

Further lines, the compound ahead of its results:

SMILES | IC50 [1] | also measured
O=C1COc2cc3ncnc(Nc4ccc(F)cc4)c3cc2N1CCCN1CCOCC1 | 434 nM | –
O=C1COc2cc3ncnc(Nc4ccc(Br)cc4)c3cc2N1CCCN1CCOCC1 | 824 nM | –
Cc1ccc(Nc2ncnc3cc4c(cc23)N(CCCN2CCOCC2)C(=O)CO4)cc1 | 594 nM | –
O=C1COc2cc3ncnc(Nc4cccc(Br)c4)c3cc2N1CCCN1CCOCC1 | 89.6 nM | –
COc1cccc(Nc2ncnc3cc4c(cc23)N(CCCN2CCOCC2)C(=O)CO4)c1 | > 1000 nM | –
C#Cc1cccc(Nc2ncnc3cc4c(cc23)N(CCCN2CCOCC2)C(=O)CO4)c1 | 139 nM | IC50 (A549): 5580 nM; IC50 [2]: 880 nM; IC50 (NCI-H358): 13500 nM
O=C1COc2cc3ncnc(Nc4cccc(C(F)(F)F)c4)c3cc2N1CCCN1CCOCC1 | 829 nM | –
O=C1COc2cc3ncnc(Nc4cccc(Br)c4)c3cc2N1CCCN1CCCCC1 | 99 nM | –
O=C1COc2cc3ncnc(Nc4ccccc4)c3cc2N1CCCN1CCOCC1 | 519 nM | –
COc1ccc(Nc2ncnc3cc4c(cc23)N(CCCN2CCOCC2)C(=O)CO4)cc1OC | > 1000 nM | –
Cc1cccc(Nc2ncnc3cc4c(cc23)N(CCCN2CCCCC2)C(=O)CO4)c1 | 456 nM | –
O=C1COc2cc3ncnc(Nc4ccc(Cl)cc4)c3cc2N1CCCN1CCOCC1 | 354 nM | –
